# Test results taken from US20230159989A1, “MULTIPLEXED FLUORESCENCE IN SITU HYBRIDIZATION METHOD CAPABLE OF RAPID DETECTION OF BILLIONS OF TARGETS” (Kanvas Biosciences, Inc., priority 2021, published 2023).
# Tested on: carbapenem-resistant K. pneumoniae
# Experiment: HiPR-FISH chip antimicrobial susceptibility / MIC by growth imaging at several meropenem concentrations
# Format: cell-based
# Details: Klebsiella pneumoniae, several hours growth on a HiPR-FISH chip, in agreement with Clinical and Laboratory Standards Institute criteria, read-out: meropenem concentration beyond which the strain still grows (* denotes MIC)
smiles,measurement,value
C[C@@H](O)[C@H]1C(=O)N2C(C(=O)O)=C(S[C@@H]3CN[C@H](C(=O)N(C)C)C3)[C@H](C)[C@H]12 [meropenem],MIC,> 2 µg/mL
